Experimental data reported in patent US20030181527A1, “Novel formulations of alpha-2,4-disulfophenyl-n-tert-butylnitrone” (priority 2000, published 2003).

Assays:
[1] = Stability of 100 mg/ml aqueous solution with added factors (chelating agent, antioxidant, oxygen removal, pH); assay type: physicochemical
Method: The effects of several added factors were investigated in experiments designed using a multivariate technique. An aqueous solution of α-(2,4-disulfophenyl)-N-tert-butylnitrone disodium salt (100 mg/ml) containing less than 0.3% 2,4-disulphobenzaldehyde disodium salt (II) was placed in sealed 10 ml glass vials with a fill volume of 10 ml. The concentrations of the degradation products and particularly of 2,4-disulphobenzaldehyde disodium salt (II) were measured by a chromatographic method after accelerated storage conditions at +40° C. and 75% relative humidity for two months.
Values are mean±standard deviation. n indicates the number of independent experiments. A t-test was performed to evaluate the significance of the different factors.

S. aureus = test: Antimicrobial efficacy (European Pharmacopoeia 2000, Chapter 5.1.3); assay type: cell-based
Method: The antimicrobial efficacy was tested for three different solutions: […] iii) a carbonate buffer control. The tests were performed according to European Pharmacopoeia 2000, Chapter 5.1.3, pages 259 to 260. Seven 10 ml vials were inoculated, one per test organism. During the tests, the vials were stored at controlled room temperature and protected from light. At different time intervals, samples were withdrawn and after appropriate dilutions the numbers of viable microorganisms (colony forming units per ml, CFU/ml) were determined using standard plate count procedures.

[2] = Stability versus concentration, vial size and headspace gas at +40° C. (Table 6); assay type: physicochemical
Method: For the 10 ml vial size, the fill volume was 10.7 ml; and for the 20 ml vial size, the fill volume was 20.7 ml.

[3] = Stability with air or nitrogen filled headspaces (Table 5); assay type: physicochemical; conditions: 400 mg/ml
Method: A 400 mg/ml concentrate of α-(2,4-disulfophenyl)-N-tert-butylnitrone disodium salt was prepared by adding α-(2,4-disulfophenyl)-N-tert-butylnitrone disodium salt (1500 g) to water for injection (2200 ml) containing dissolved disodium hydrogen phosphate dihydrate (3.51 g). The solution was then adjusted to pH 8.5 by the addition of 2M sodium hydroxide solution and then water for injection was added to give a final volume of 3750 ml. After preparation, the solution was purged with nitrogen for 90 minutes and then placed in 10 ml glass vials with a fill volume of 7.7 ml. Before stoppering the vials, the headspace was purged with nitrogen. […] The vials were stored either at +5° C. at ambient humidity or at +25° C. and 60% relative humidity.
A second batch of 400 mg/ml concentrate of α-(2,4-disulfophenyl)-N-tert-butylnitrone disodium salt buffered with 50 mM phosphate buffer was treated identically except that the headspace was filled with air not nitrogen and the fill volume was 10.5 ml.

[4] = Effect of concentration on stability, unbuffered solutions at +5° C.; assay type: physicochemical
Method: In a second study unbuffered aqueous solutions of α-(2,4-disulfophenyl)-N-tert-butylnitrone disodium salt (concentration either 100 mg/ml or 200 mg/ml) were dispensed into 50 ml glass vials and stored at +5° C.

[5] = unbuffered 100 mg/ml, 12 months
[6] = unbuffered 200 mg/ml, 12 months

## CC(C)(C)[N+]([O-])=Cc1ccc(S(=O)(=O)[O-])cc1S(=O)(=O)[O-].[Na+].[Na+] [α-(2,4-disulfophenyl)-N-tert-butylnitrone disodium salt]
[1]; 100 mg/ml aqueous solution, before storage
  Initial content of 2,4-disulphobenzaldehyde disodium salt (II): less than 0.3%
[1]; 100 mg/ml, added EDTA, pH 7.0 to 8.8, 2 months +40° C./75% RH
  Final Amount of Aldehyde (II): 2.27 ± 0.12 area %
[1]; 100 mg/ml, added ascorbate, pH 7.0 to 7.3, 2 months +40° C./75% RH
  Final Amount of Aldehyde (II): 1.32 ± 0.11 (p < 0.001) area %
[1]; 100 mg/ml, added factor none, pH 7.0 to 8.2, 2 months +40° C./75% RH
  Final Amount of Aldehyde (II): 2.20 ± 0.11 area %
[1]; 100 mg/ml, nitrogen purge, pH 7.0 to 8.6, 2 months +40° C./75% RH
  Final Amount of Aldehyde (II): 1.34 ± 0.18 (p < 0.001) area %
[1]; pH 7 to 9, 100 mg/ml, 2 months +40° C./75% RH
  Effect of pH on the degree of decomposition: no significant effect
S. aureus; 10 mg/ml, 6 h
  Number of CFUs per ml - Time after Inoculation: 4.5 × 10^5 CFUs per ml
S. aureus; 10 mg/ml, 24 h
  Number of CFUs per ml - Time after Inoculation: 4.5 × 10^3 CFUs per ml
S. aureus; 10 mg/ml, 48 h
  Number of CFUs per ml - Time after Inoculation: ≦10 CFUs per ml
S. aureus; 10 mg/ml, 7 days
  Number of CFUs per ml - Time after Inoculation: <1 CFUs per ml
S. aureus; 10 mg/ml, 14 days
  Number of CFUs per ml - Time after Inoculation: <1 CFUs per ml
S. aureus; 10 mg/ml, 21 days
  Number of CFUs per ml - Time after Inoculation: <1 CFUs per ml
S. aureus; 10 mg/ml, 28 days
  Number of CFUs per ml - Time after Inoculation: <1 CFUs per ml
S. aureus; 10 mg/ml, <1 min
  Number of CFUs per ml - Time after Inoculation: 2.0 × 10^6 CFUs per ml
S. aureus; 400 mg/ml, 6 h
  Number of CFUs per ml - Time after Inoculation: 6.7 × 10^5 CFUs per ml
S. aureus; 400 mg/ml, 24 h
  Number of CFUs per ml - Time after Inoculation: 8.7 × 10^2 CFUs per ml
S. aureus; 400 mg/ml, 48 h
  Number of CFUs per ml - Time after Inoculation: 3.8 × 10^2 CFUs per ml
S. aureus; 400 mg/ml, 7 days
  Number of CFUs per ml - Time after Inoculation: <1 CFUs per ml
S. aureus; 400 mg/ml, 14 days
  Number of CFUs per ml - Time after Inoculation: <1 CFUs per ml
S. aureus; 400 mg/ml, 21 days
  Number of CFUs per ml - Time after Inoculation: <1 CFUs per ml
S. aureus; 400 mg/ml, 28 days
  Number of CFUs per ml - Time after Inoculation: <1 CFUs per ml
S. aureus; 400 mg/ml, <1 min
  Number of CFUs per ml - Time after Inoculation: 3.3 × 10^6 CFUs per ml
[2]; 50 mg/ml, 10 ml vial, N2 in headspace, 2 months at +40° C.
  Amount of Aldehyde (II): 1.4 w/w %
[2]; 50 mg/ml, 10 ml vial, N2 in headspace, 3 months at +40° C.
  Amount of Aldehyde (II): 1.5 w/w %
[2]; 50 mg/ml, 10 ml vial, N2 in headspace, 6 months at +40° C.
  Amount of Aldehyde (II): 1.7 w/w %
[2]; 50 mg/ml, 10 ml vial, N2 in headspace, initial
  Amount of Aldehyde (II): 0.2 w/w %
[2]; 50 mg/ml, 10 ml vial, air in headspace, 2 months at +40° C.
  Amount of Aldehyde (II): 2.8 w/w %
[2]; 50 mg/ml, 10 ml vial, air in headspace, 3 months at +40° C.
  Amount of Aldehyde (II): 3.3 w/w %
[2]; 50 mg/ml, 10 ml vial, air in headspace, 6 months at +40° C.
  Amount of Aldehyde (II): 3.5 w/w %
[2]; 50 mg/ml, 10 ml vial, air in headspace, initial
  Amount of Aldehyde (II): 0.2 w/w %
[2]; 100 mg/ml, 10 ml vial, air in headspace, 2 months at +40° C.
  Amount of Aldehyde (II): 1.8 w/w %
[2]; 100 mg/ml, 10 ml vial, air in headspace, initial
  Amount of Aldehyde (II): 0.2 w/w %
[2]; 400 mg/ml, 10 ml vial, N2 in headspace, 2 months at +40° C.
  Amount of Aldehyde (II): 0.5 w/w %
[2]; 400 mg/ml, 10 ml vial, N2 in headspace, 3 months at +40° C.
  Amount of Aldehyde (II): 0.6 w/w %
[2]; 400 mg/ml, 10 ml vial, N2 in headspace, initial
  Amount of Aldehyde (II): 0.3 w/w %
[2]; 400 mg/ml, 10 ml vial, air in headspace, 2 months at +40° C.
  Amount of Aldehyde (II): 0.8 w/w %
[2]; 400 mg/ml, 10 ml vial, air in headspace, 3 months at +40° C.
  Amount of Aldehyde (II): 0.9 w/w %
[2]; 400 mg/ml, 10 ml vial, air in headspace, initial
  Amount of Aldehyde (II): 0.3 w/w %
[2]; 400 mg/ml, 20 ml vial, N2 in headspace, 2 months at +40° C.
  Amount of Aldehyde (II): 0.5 w/w %
[2]; 400 mg/ml, 20 ml vial, N2 in headspace, 3 months at +40° C.
  Amount of Aldehyde (II): 0.5 w/w %
[2]; 400 mg/ml, 20 ml vial, N2 in headspace, initial
  Amount of Aldehyde (II): 0.3 w/w %
[2]; 400 mg/ml, 20 ml vial, air in headspace, 2 months at +40° C.
  Amount of Aldehyde (II): 0.7 w/w %
[2]; 400 mg/ml, 20 ml vial, air in headspace, 3 months at +40° C.
  Amount of Aldehyde (II): 0.8 w/w %
[2]; 400 mg/ml, 20 ml vial, air in headspace, initial
  Amount of Aldehyde (II): 0.3 w/w %
[3]; 50 mM phosphate, air-filled headspace, fill 10.5 ml, +5° C., 0 months
  Amount of Aldehyde (II): 0.3 area %
[3]; 50 mM phosphate, air-filled headspace, fill 10.5 ml, +5° C., 3 months
  Amount of Aldehyde (II): 0.3 area %
[3]; 50 mM phosphate, air-filled headspace, fill 10.5 ml, +5° C., 6 months
  Amount of Aldehyde (II): 0.5 area %
[3]; 50 mM phosphate, air-filled headspace, fill 10.5 ml, +5° C., 12 months
  Amount of Aldehyde (II): 0.4 area %
[3]; 50 mM phosphate, air-filled headspace, fill 10.5 ml, +25° C./60% RH, 0 months
  Amount of Aldehyde (II): 0.3 area %
[3]; 50 mM phosphate, air-filled headspace, fill 10.5 ml, +25° C./60% RH, 3 months
  Amount of Aldehyde (II): 0.7 area %
[3]; 50 mM phosphate, air-filled headspace, fill 10.5 ml, +25° C./60% RH, 6 months
  Amount of Aldehyde (II): 1.0 area %
[3]; 50 mM phosphate, air-filled headspace, fill 10.5 ml, +25° C./60% RH, 12 months
  Amount of Aldehyde (II): 0.7 area %
[3]; pH 8.5, nitrogen-filled headspace, fill 7.7 ml, +5° C., 0 months
  Amount of Aldehyde (II): 0.2 area %
[3]; pH 8.5, nitrogen-filled headspace, fill 7.7 ml, +5° C., 3 months
  Amount of Aldehyde (II): 0.2 area %
[3]; pH 8.5, nitrogen-filled headspace, fill 7.7 ml, +5° C., 6 months
  Amount of Aldehyde (II): 0.2 area %
[3]; pH 8.5, nitrogen-filled headspace, fill 7.7 ml, +5° C., 12 months
  Amount of Aldehyde (II): 0.3 area %
[3]; pH 8.5, nitrogen-filled headspace, fill 7.7 ml, +25° C./60% RH, 0 months
  Amount of Aldehyde (II): 0.2 area %
[3]; pH 8.5, nitrogen-filled headspace, fill 7.7 ml, +25° C./60% RH, 3 months
  Amount of Aldehyde (II): 0.4 area %
[3]; pH 8.5, nitrogen-filled headspace, fill 7.7 ml, +25° C./60% RH, 6 months
  Amount of Aldehyde (II): 0.3 area %
[3]; pH 8.5, nitrogen-filled headspace, fill 7.7 ml, +25° C./60% RH, 12 months
  Amount of Aldehyde (II): 0.5 area %
[4]; unbuffered 100 mg/ml, 0 months
  Amount of Aldehyde (II): 0.2 Area %
  pH: 7.4
[4]; unbuffered 100 mg/ml, 1 month
  Amount of Aldehyde (II): 0.5 Area %
  pH: 7.5
[4]; unbuffered 100 mg/ml, 3 months
  Amount of Aldehyde (II): 1.0 Area %
  pH: 7.3
[4]; unbuffered 100 mg/ml, 6 months
  Amount of Aldehyde (II): 1.6 Area %
  pH: 7.1
[4]; [5]
  Amount of Aldehyde (II): 1.6 Area %
  pH: 6.9
[4]; unbuffered 200 mg/ml, 0 months
  Amount of Aldehyde (II): 0.2 Area %
  pH: 7.6
[4]; unbuffered 200 mg/ml, 1 month
  Amount of Aldehyde (II): 0.4 Area %
  pH: 7.6
[4]; unbuffered 200 mg/ml, 3 months
  Amount of Aldehyde (II): 0.6 Area %
  pH: 7.4
[4]; unbuffered 200 mg/ml, 6 months
  Amount of Aldehyde (II): 0.8 Area %
  pH: 7.4
[4]; [6]
  Amount of Aldehyde (II): 1.1 Area %
  pH: 6.9
